# From PubChem BioAssay (NCI)
#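 96-well plates; 48 h exposure; 5 concentrations. Endpoints by linear interpolation between flanking doses. Not reached: highest tested concentration assigned. The concentration for 50% growth inhibition is given as GI50. TGI: total growth inhibition.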
# Columns and labels:
# Assay in all cases: NCI-60 cell line screen, 48 h
# OVCAR-5 ovarian = system: OVCAR-5 ovarian
# HCT-116 colon = system: HCT-116 colon
# 786-0 renal = system: 786-0 renal
# K-562 leukemia = system: K-562 leukemia
# HL-60(TB) leukemia = system: HL-60(TB) leukemia
# ACHN renal = system: ACHN renal
# SF-295 CNS = system: SF-295 CNS
# DU-145 prostate = system: DU-145 prostate
# T-47D breast = system: T-47D breast
# MDA-MB-435 = system: MDA-MB-435
SMILES,TGI (OVCAR-5 ovarian),TGI (HCT-116 colon),TGI (786-0 renal),TGI (K-562 leukemia),TGI (HL-60(TB) leukemia),TGI (ACHN renal),TGI (SF-295 CNS),GI50 (OVCAR-5 ovarian),GI50 (786-0 renal),GI50 (DU-145 prostate),TGI (DU-145 prostate),GI50 (T-47D breast),TGI (T-47D breast),GI50 (K-562 leukemia),GI50 (HL-60(TB) leukemia),GI50 (SF-295 CNS),GI50 (HCT-116 colon),GI50 (MDA-MB-435),TGI (MDA-MB-435),GI50 (ACHN renal)
CCCCCCc1cc(C(=O)Nc2cccc(C(F)(F)F)c2)nc(N)n1,> 100 µM,> 100 µM,> 100 µM,> 100 µM,> 100 µM,> 100 µM,> 100 µM,–,–,–,–,–,–,–,–,–,–,–,–,–
O=C(/C(=C/c1ccc([N+](=O)[O-])cc1)c1ccccc1)c1ccccc1,> 100 µM,–,> 100 µM,> 100 µM,5.71 µM,–,> 100 µM,4.91 µM,3.56 µM,3.17 µM,> 100 µM,3.13 µM,> 100 µM,3.08 µM,2.29 µM,3.56 µM,–,–,–,–
CCOC(=O)C(=O)Nc1c(CC)cccc1C(C)C,> 100 µM,> 100 µM,> 100 µM,–,–,> 100 µM,> 100 µM,–,–,–,–,–,–,–,–,–,–,–,–,–
Cc1cc2c(C)n(Cc3ccc(Cl)cc3Cl)nc2c(C#N)c1C,> 56.2 µM,> 100 µM,37.4 µM,> 100 µM,> 100 µM,> 100 µM,60.9 µM,–,–,–,–,–,–,–,–,–,–,–,–,–
CCN(C(=O)N1CCN(c2cc3c(cc2F)c(=O)c(C(=O)O)cn3C2CC2)CC1)c1nc(-c2ccc(C)cc2)cs1,> 100 µM,> 40.1 µM,10.8 µM,> 100 µM,–,> 100 µM,3.76 µM,0.68 µM,0.954 µM,0.442 µM,82.8 µM,2.11 µM,> 100 µM,0.431 µM,–,0.306 µM,1.04 µM,0.56 µM,> 100 µM,0.976 µM
COc1ccc(N=c2ssc3c(=S)ssc23)cc1,> 100 µM,> 100 µM,> 100 µM,22.5 µM,28.2 µM,> 100 µM,> 100 µM,–,–,–,–,–,–,–,–,–,–,–,–,–
COC(=O)C(Cc1ccccc1)NC(=O)NC(=O)NC(=O)CI (stereo not given),29.7 µM,11.1 µM,10.9 µM,5.08 µM,–,3.62 µM,31.2 µM,13 µM,3.35 µM,12.1 µM,25.3 µM,2.71 µM,8.5 µM,2.09 µM,–,16.4 µM,3.27 µM,3.38 µM,13.8 µM,1.85 µM
Brc1cccc(C2SCc3nc4ccccc4n32)c1 (stereo not given),> 100 µM,29.4 µM,44.5 µM,> 100 µM,34.9 µM,> 100 µM,86.3 µM,–,–,–,–,–,–,–,–,–,–,–,–,–
CCCCCCCCCCCC(=O)OCCOCCOCCOCCOCCOCc1ccc(OC)cc1,> 100 µM,> 100 µM,> 100 µM,> 100 µM,51.7 µM,> 100 µM,> 100 µM,–,–,–,–,–,–,–,–,–,–,–,–,–
O=C1C(=O)N(c2ccc(Cl)c(Cl)c2)C(=O)C(=O)C1c1nc2ccccc2s1,> 100 µM,> 100 µM,> 100 µM,–,–,> 100 µM,> 100 µM,–,–,–,–,–,–,–,–,–,–,–,–,–
N#Cc1c(N/N=C/c2c(Cl)cccc2Cl)nc(N)nc1N1CCOCC1,> 100 µM,31.3 µM,> 100 µM,11.3 µM,–,> 100 µM,> 100 µM,43.4 µM,5.82 µM,16 µM,> 100 µM,48 µM,> 100 µM,2.34 µM,–,4.69 µM,4.72 µM,3.26 µM,36 µM,5.48 µM
CCOC(=O)C(C)(c1cn(C)c2ccccc12)c1cn(C)c2ccccc12,> 100 µM,> 100 µM,> 100 µM,> 100 µM,> 100 µM,> 100 µM,> 100 µM,–,–,–,–,–,–,–,–,–,–,–,–,–
CN(C)c1nc(=Nc2ccc3ccccc3c2)ss1,–,> 100 µM,> 100 µM,> 100 µM,54.7 µM,> 100 µM,–,–,–,–,–,–,–,–,–,–,–,–,–,–
CS(=O)(=O)Oc1cccc(/C=N/N=C(\N)NO)c1,> 100 µM,> 100 µM,54.3 µM,> 100 µM,52.4 µM,66.1 µM,> 100 µM,–,–,–,–,–,–,–,–,–,–,–,–,–
Cn1cnc2nc(Cl)nc(NC(C)(C)C(C)(C)O)c21,> 100 µM,> 100 µM,> 100 µM,> 100 µM,> 100 µM,> 100 µM,> 100 µM,–,–,–,–,–,–,–,–,–,–,–,–,–
C[Si](C)(C)OC1(C#N)C2C3CC4C2C(=O)C2C4C3C21 (stereo not given),–,> 100 µM,> 100 µM,> 100 µM,> 100 µM,> 100 µM,–,–,–,–,–,–,–,–,–,–,–,–,–,–
COc1ccc(OC)c(NC(=O)CCC/C(CC(=O)c2ccc(O)c(OC)c2)=N\NC(=O)C[N+](C)(C)C)c1,> 100 µM,–,> 100 µM,> 100 µM,> 100 µM,> 100 µM,> 100 µM,–,–,–,–,–,–,–,–,–,–,–,–,–
